Tests used:
Test in all cases: relative viability (nuclei count vs DMSO), 5 days (fraction); higher = more cells survive
[1] = compound: C1=CC2=C(C=C(C(=C2N=C1)O)N=NC3=CC4=C(C=C3)C=C(C=C4)S(=O)(=O)O)S(=O)(=O)O + Cc1cc(Nc2cc(N3CCN(C)CC3)nc(Sc3ccc(NC(=O)C4CC4)cc3)n2)n[nH]1 [Tozasertib] (partner 0.1 µM)
Method in brief: (§1)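 Lung cancer cell lines were pin-tool dosed in 1536-well plates on the day after seeding, with either a lone drug or a fixed anchor-drug dose plus five library-drug doses (not always all listed) in √10 steps. Nuclei were counted on 4× images after 5 days. Relative viability is the ratio of treated-well to vehicle-well nuclei counts, with each value a median of duplicate plates.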

[2] = compound: C1=CC2=C(C=C(C(=C2N=C1)O)N=NC3=CC4=C(C=C3)C=C(C=C4)S(=O)(=O)O)S(=O)(=O)O + C[C@]1(O)C[C@@H](c2nc(-c3ccc4ccc(-c5ccccc5)nc4c3)c3c(N)nccn32)C1 [Linsitinib] (partner 1 µM)
Method in brief: as §1

AT-7519 + Alpelisib = compound: O=C(NC1CCNCC1)c1n[nH]cc1NC(=O)c1c(Cl)cccc1Cl [AT-7519] + Cc1nc(NC(=O)N2CCC[C@H]2C(N)=O)sc1-c1ccnc(C(C)(C)C(F)(F)F)c1 [Alpelisib] (partner 2 µM)
Method in brief: as §1

AT-7519 + Foretinib = compound: O=C(NC1CCNCC1)c1n[nH]cc1NC(=O)c1c(Cl)cccc1Cl [AT-7519] + COc1cc2c(Oc3ccc(NC(=O)C4(C(=O)Nc5ccc(F)cc5)CC4)cc3F)ccnc2cc1OCCCN1CCOCC1 [Foretinib] (partner 0.25 µM)
Method in brief: as §1

Which relative viability ([1]; first compound 0.08 µM) does the source give for UMC-11 here?
Its relative viability is 0.187.

What about the relative viability ([1]; first compound 0.253 µM) of the same cell line?
The relative viability was 0.193.

What about the relative viability ([1]; first compound 0.8 µM) of the same cell line?
Its relative viability is 0.212.

What about the relative viability ([1]; first compound 2.53 µM) of the same cell line?
The relative viability was 0.205.

And the relative viability ([1]; first compound 8 µM)?
Its relative viability is 0.179.

And the relative viability ([2]; first compound 0.08 µM)?
The relative viability was 1.11.

And the relative viability ([2]; first compound 0.253 µM)?
Its relative viability is 0.943.

What about the relative viability ([2]; first compound 0.8 µM) of the same cell line?
The relative viability was 1.03.

And the relative viability ([2]; first compound 2.53 µM)?
Its relative viability is 1.02.

What about the relative viability ([2]; first compound 8 µM) of the same cell line?
Its relative viability is 0.944.

And the relative viability (AT-7519 + Alpelisib; first compound 0.01 µM)?
Its relative viability is 0.841.

And the relative viability (AT-7519 + Alpelisib; first compound 0.03162 µM)?
The relative viability was 0.94.

And the relative viability (AT-7519 + Alpelisib; first compound 0.3162 µM)?
The relative viability was 0.587.

And the relative viability (AT-7519 + Alpelisib; first compound 1 µM)?
Its relative viability is 0.35.

What about the relative viability (AT-7519 + Foretinib; first compound 0.01 µM) of the same cell line?
The relative viability was 1.1.

And the relative viability (AT-7519 + Foretinib; first compound 0.03162 µM)?
The relative viability was 0.934.

And the relative viability (AT-7519 + Foretinib; first compound 0.3162 µM)?
The relative viability was 0.838.

And the relative viability (AT-7519 + Foretinib; first compound 1 µM)?
The relative viability was 0.457.

Source: the supplement of paper PMC10307832
